According to patent US10669227B2 (THE RESEARCH FOUNDATION OF STATE UNIVERSITY OF NEW YORK, priority 2009, dated 2020):

Key:
MMP-2 = MMP-2 (Homo sapiens (Human), UniProt P08253); assay: MMP-2 inhibition in vitro, octapeptide substrate, HPLC; type: biochemical; settings: for inhibition at 100 µM: read-out: MMP-2 Maximum Inhibition @100 μM; for MMP-2 Ratio (IC50 test compound/IC50 standard): standard 1,10-phenanthroline
[1] = target: MMP-9 (human leukocyte gelatinase) (Homo sapiens (Human), UniProt P14780); assay: MMP-9 inhibition in vitro, octapeptide substrate, HPLC; type: biochemical; settings: read-out: Maximum Inhibition At 100 μM compound (MMP-9)
Chain of MMP-9 (human leukocyte gelatinase) (P14780 94-707): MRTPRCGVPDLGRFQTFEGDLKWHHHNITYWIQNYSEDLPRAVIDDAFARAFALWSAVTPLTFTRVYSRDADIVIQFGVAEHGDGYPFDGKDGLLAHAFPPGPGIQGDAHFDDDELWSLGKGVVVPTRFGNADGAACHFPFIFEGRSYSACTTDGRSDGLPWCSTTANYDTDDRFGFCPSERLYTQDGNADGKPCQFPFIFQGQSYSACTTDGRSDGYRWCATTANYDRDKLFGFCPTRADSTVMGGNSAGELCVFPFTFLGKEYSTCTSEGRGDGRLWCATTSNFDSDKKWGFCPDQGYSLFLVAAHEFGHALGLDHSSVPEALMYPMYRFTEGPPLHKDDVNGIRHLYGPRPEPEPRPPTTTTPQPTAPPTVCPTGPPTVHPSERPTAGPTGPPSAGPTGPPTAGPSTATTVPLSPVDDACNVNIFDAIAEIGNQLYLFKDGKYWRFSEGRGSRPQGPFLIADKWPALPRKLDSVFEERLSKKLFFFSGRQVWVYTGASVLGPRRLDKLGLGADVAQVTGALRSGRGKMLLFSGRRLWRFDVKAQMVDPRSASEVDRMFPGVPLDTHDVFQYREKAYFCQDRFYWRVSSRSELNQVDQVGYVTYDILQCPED
Text: In contrast all three chemically-modified curcumins at 100 μm final concentration inhibited gelatinase activity by 68-100% (FIG. 6 and Table 6).

MMP-13 (Collagenase-3) = MMP-13 (Collagenase-3) (Homo sapiens (Human), UniProt P45452); assay: MMP-13 inhibition in vitro, octapeptide substrate, HPLC; type: biochemical; settings: for inhibition at 100 µM: read-out: MMP-13 Maximum Inhibition @100 μM; for MMP-13 Ratio (IC50 test compound/IC50 standard): standard 1,10-phenanthroline
[2] = Solubility in aqueous solutions; type: physicochemical; settings: comparative
human monocytes = assay: Cytotoxicity in human monocytes (MTS); type: cell-based
Procedure: Briefly, human peripheral blood monocytes (HMs) were isolated from a leukocyte concentrate by density gradient centrifugation (Lymphoprep) and the isolated HMs cultured (2 h, 37° C.) to remove non-adherent cells. […] After incubation, the proinflammatory cytokines, TNFα, […], MCP-1 and IL-6 were measured in the conditioned media by ELISA and cytotoxicity was assessed by measuring the absorbance (490 nm) of formazan produced by reduction of MTS. The HMs alone±0.1-0.5% DMSO produced minimal levels of these pro-inflammatory cytokines. However, addition of 100 ng/ml or 10 μg/ml of LPS both dramatically stimulated cytokine production.

TNF-α = assay: Inhibition of TNF-α production by LPS-stimulated monocytes; type: cell-based, human; settings: Homo sapiens, Monocyte, 18 h, read-out: % Inhibition of TNF-α produced by stimulated Monocytes with LPS @ 18 h
Procedure: Briefly, human peripheral blood monocytes (HMs) were isolated from a leukocyte concentrate by density gradient centrifugation (Lymphoprep) and the isolated HMs cultured (2 h, 37° C.) to remove non-adherent cells. The adherent HMs wore cultured for 18 h (1×10^6 cells/well, 24-well plates)±endotoxin (LPS)±different compounds dissolved in DMSO (the final concentration of DMSO in the RPMI serum-free culture media with Pen./Strep. antibiotics was no greater than 0.5%). After incubation, the proinflammatory cytokines, TNFα, […], MCP-1 and IL-6 were measured in the conditioned media by ELISA and cytotoxicity was assessed by measuring the absorbance (490 nm) of formazan produced by reduction of MTS. The HMs alone±0.1-0.5% DMSO produced minimal levels of these pro-inflammatory cytokines. However, addition of 100 ng/ml or 10 μg/ml of LPS both dramatically stimulated cytokine production.
The cytokine levels were measured by Luminex multiplex, a method that allows the simultaneous measurement of different biological markers.

Chain of MMP-2 (P08253 110-660, species assumed): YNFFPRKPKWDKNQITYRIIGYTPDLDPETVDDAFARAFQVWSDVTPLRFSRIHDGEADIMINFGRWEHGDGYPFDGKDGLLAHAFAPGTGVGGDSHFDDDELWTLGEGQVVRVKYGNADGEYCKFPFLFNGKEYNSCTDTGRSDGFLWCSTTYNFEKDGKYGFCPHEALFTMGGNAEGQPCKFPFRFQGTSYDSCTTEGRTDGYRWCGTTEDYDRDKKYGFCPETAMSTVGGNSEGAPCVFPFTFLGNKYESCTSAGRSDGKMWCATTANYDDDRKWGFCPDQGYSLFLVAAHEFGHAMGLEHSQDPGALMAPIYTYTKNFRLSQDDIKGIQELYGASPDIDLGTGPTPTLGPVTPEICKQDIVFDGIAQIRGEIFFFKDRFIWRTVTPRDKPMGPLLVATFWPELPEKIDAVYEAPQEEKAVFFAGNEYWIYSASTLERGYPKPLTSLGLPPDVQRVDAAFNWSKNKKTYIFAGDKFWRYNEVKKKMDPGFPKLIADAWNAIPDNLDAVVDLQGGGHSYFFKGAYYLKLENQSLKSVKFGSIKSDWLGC

inhibition at 100 µM (MMP-2) [%] | MMP-2 Ratio (IC50 test compound/IC50 standard) (MMP-2) | inhibition at 100 µM (MMP-13 (Collagenase-3)) [%] | MMP-13 Ratio (IC50 test compound/IC50 standard) (MMP-13 (Collagenase-3)) | Structure (SMILES) | inhibition at 100 µM [1] [%] | Solubility [2] | also measured
 |  |  |  | COC(=O)C(C(=O)/C=C/c1ccccc1)C(=O)/C=C/c1ccccc1 [Compound 2] |  | improved solubility | 
60 | 1.0 | 76 | 2.0 | COC(=O)C(C(=O)/C=C/c1ccc(O)cc1)C(=O)/C=C/c1ccc(O)cc1 [Compound 3, 1,7-Bis(4-hydroxyphenyl)-4-methoxycarbonylhepta-1E,6E-dien-3,5-dione] | 68 | more soluble in aqueous solutions than compound 1 | 
36 | >3.6 | 50 | 62.5 | COc1cc(/C=C/C(=O)CC(=O)/C=C/c2ccc(N(C)C)cc2)ccc1O [Compound 4] | 100 |  | 
53 |  | 100 |  | COc1cc(/C=C/C(=O)C(C(=O)/C=C/c2ccc(O)c(OC)c2)C(=O)Nc2ccccc2)ccc1O [Compound 6, 1,7-Bis(4-hydroxy-3-methoxyphenyl)-4-N-phenylaminocarbonylhepta-1E,6E-dien-3,5-dione] |  |  | 
45 | 1.8 | 77 | <0.3 | O=C(/C=C/c1ccc(O)cc1)C(C(=O)/C=C/c1ccc(O)cc1)C(=O)Nc1ccccc1 [Compound 7, 1,7-Bis(4-hydroxyphenyl)-4-N-phenylaminocarbonylhepta-1E,6E-dien-3,5-dione] |  |  | 
 |  | 53 | 11.3 | CN(C)c1ccc(/C=C/C(=O)C(C(=O)/C=C/c2ccc(N(C)C)cc2)C(=O)Nc2ccccc2)cc1 [Compound 8, 1,7-Bis(4-dimethylaminophenyl)-4-N-phenylaminocarbonylhepta-1E,6E-dien-3,5-dione] |  |  | 

Structure (SMILES) | inhibition at 100 µM (MMP-2) [%] | MMP-2 Ratio (IC50 test compound/IC50 standard) (MMP-2) | inhibition at 100 µM (MMP-13 (Collagenase-3)) [%] | MMP-13 Ratio (IC50 test compound/IC50 standard) (MMP-13 (Collagenase-3)) | inhibition at 100 µM [1] [%] | Solubility [2] | also measured
c1cnc2c(c1)ccc1cccnc12 [1,10-phenanthroline, 1,10-O-phenanthroline, reference compound] | 60 | 1.0 | 100 | 1.0 | 100 |  | 
COc1cc(/C=C/C(=O)CC(=O)/C=C/c2ccc(O)c(OC)c2)ccc1O [Curcumin, curcumin] | 54 |  |  |  | 58 | insoluble | Cytotoxicity Monocytes @ 5 h incubation (human monocytes; 10 uM): 10 uM - 0%; Cytotoxicity Monocytes @ 18 h incubation (human monocytes; 10 uM): 10 uM - 0%; Cytotoxicity Monocytes @ 5 h incubation (human monocytes; 20 uM): 20 uM - 20%; Cytotoxicity Monocytes @ 18 h incubation (human monocytes; 20 uM): 20 uM - 20%; Cytotoxicity Monocytes @ 5 h incubation (human monocytes; 50 uM): 50 uM - 50%; Cytotoxicity Monocytes @ 18 h incubation (human monocytes; 50 uM): 50 uM - 77%; Cytotoxicity in monocyte culture (human monocytes; 50 and 100 μM, with some precipitation): significant cytotoxicity; inhibition at 10 µM (TNF-α; 10 uM): 0%; inhibition at 20 µM (TNF-α; 20 uM): 0%; inhibition at 50 µM (TNF-α; 50 uM): 80%
